In brackets after ≈: the same amount, converted by molar mass.
Assays:
[1] = Toxicity in brine shrimp larvae assessed as mortality after 24 hrs; format: organism-based; settings: artemia salina, in vivo
[2] = tested on: Artemia salina; assay: Toxicity in brine shrimp larvae assessed as mortality at 50 ug/ml after 24 hrs; format: organism-based; settings: in vivo
[3] = tested on: Artemia salina; assay: Toxicity in brine shrimp larvae assessed as mortality at 100 ug/ml after 24 hrs; format: organism-based; settings: in vivo
[4] = tested on: Artemia salina; assay: Toxicity in brine shrimp larvae assessed as mortality at 800 ug/ml after 24 hrs; format: organism-based; settings: in vivo
[5] = tested on: Artemia salina; assay: Toxicity in brine shrimp larvae assessed as mortality at 1600 ug/ml after 24 hrs; format: organism-based; settings: in vivo
[6] = tested on: Pichia kudriavzevii; assay: Antimicrobial activity against Candida krusei ATCC 6258 after 24 hrs by broth microdilution method; format: functional; settings: ATCC 6258, 24 h
[7] = tested on: Nakaseomyces glabratus; assay: Antimicrobial activity against Candida glabrata ATCC 90030 after 24 hrs by broth microdilution method; format: functional; settings: ATCC 90030, 24 h
[8] = tested on: Listeria monocytogenes; assay: Antimicrobial activity against Listeria monocytogenes ATCC 19115 after 24 hrs by broth microdilution method; format: functional; settings: ATCC 19115, 24 h
[9] = tested on: Candida albicans; assay: Antimicrobial activity against Candida albicans ATCC 90028 after 24 hrs by broth microdilution method; format: functional; settings: ATCC 90028, 24 h
[10] = tested on: Staphylococcus aureus; assay: Antimicrobial activity against Staphylococcus aureus ATCC 25923 after 24 hrs by broth microdilution method; format: functional; settings: ATCC 25923, 24 h
[11] = tested on: Enterococcus faecalis; assay: Antimicrobial activity against Enterococcus faecalis ATCC 51299 after 24 hrs by broth microdilution method; format: functional; settings: ATCC 51299, 24 h
[12] = tested on: Enterococcus faecalis; assay: Antimicrobial activity against Enterococcus faecalis ATCC 29212 after 24 hrs by broth microdilution method; format: functional; settings: ATCC 29212, 24 h
[13] = tested on: Pseudomonas aeruginosa; assay: Antimicrobial activity against Pseudomonas aeruginosa ATCC 27853 after 24 hrs by broth microdilution method; format: functional; settings: ATCC 27853, 24 h
[14] = tested on: Klebsiella pneumoniae; assay: Antimicrobial activity against Klebsiella pneumoniae ATCC 13883 after 24 hrs by broth microdilution method; format: functional; settings: ATCC 13883, 24 h
[15] = tested on: Escherichia coli; assay: Antimicrobial activity against Escherichia coli ATCC 25922 after 24 hrs by broth microdilution method; format: functional; settings: ATCC 25922, 24 h
[16] = tested on: Escherichia coli; assay: Antimicrobial activity against Escherichia coli ATCC 35218 after 24 hrs by broth microdilution method; format: functional; settings: ATCC 35218, 24 h
[17] = tested on: Artemia salina; assay: Toxicity in brine shrimp larvae assessed as mortality at 200 ug/ml after 24 hrs; format: organism-based; settings: in vivo
[18] = tested on: Artemia salina; assay: Toxicity in brine shrimp larvae assessed as mortality at 400 ug/ml after 24 hrs; format: organism-based; settings: in vivo

Compound	LC50 at 24 h [1] [µg/mL]	Activity [2]	Activity [3]	Activity [4]	Activity [5]	MIC [6] [µg/mL]	MIC [7] [µg/mL]	MIC [8] [µg/mL]	MIC [9] [µg/mL]	MIC [10] [µg/mL]	MIC [11] [µg/mL]	MIC [12] [µg/mL]	MIC [13] [µg/mL]	MIC [14] [µg/mL]	MIC [15] [µg/mL]	MIC [16] [µg/mL]	Activity [17]	Activity [18]
Cc1nc(SCC(=O)c2ccc(F)c(F)c2)n(Nc2ccc(Cl)cc2)c1C	359 (≈ 881 µM)	Non-toxic	Non-toxic	Toxic	Toxic	100 (≈ 245 µM)	100 (≈ 245 µM)	50 (≈ 123 µM)	50 (≈ 123 µM)	400 (≈ 981 µM)	400 (≈ 981 µM)	50 (≈ 123 µM)	400 (≈ 981 µM)	400 (≈ 981 µM)	400 (≈ 981 µM)	800 (≈ 1960 µM)	–	–
Cc1nc(SCC(=O)c2ccc(F)c(F)c2)n(Nc2ccccc2)c1C	465 (≈ 1250 µM)	–	–	–	–	200 (≈ 536 µM)	400 (≈ 1070 µM)	50 (≈ 134 µM)	400 (≈ 1070 µM)	100 (≈ 268 µM)	400 (≈ 1070 µM)	25 (≈ 66.9 µM)	400 (≈ 1070 µM)	400 (≈ 1070 µM)	400 (≈ 1070 µM)	400 (≈ 1070 µM)	–	–
COc1ccc(C(=O)CSc2nc(C)c(C)n2Nc2ccc(C)cc2)cc1OC	1310 (≈ 3180 µM)	Non-toxic	Non-toxic	–	–	50 (≈ 121 µM)	100 (≈ 243 µM)	50 (≈ 121 µM)	100 (≈ 243 µM)	400 (≈ 972 µM)	400 (≈ 972 µM)	100 (≈ 243 µM)	400 (≈ 972 µM)	400 (≈ 972 µM)	200 (≈ 486 µM)	200 (≈ 486 µM)	Non-toxic	–
Cc1nc(SCC(=O)c2ccc(Cl)c(Cl)c2)n(Nc2ccccc2)c1C	–	–	–	–	–	200 (≈ 492 µM)	200 (≈ 492 µM)	400 (≈ 984 µM)	400 (≈ 984 µM)	800 (≈ 1970 µM)	800 (≈ 1970 µM)	200 (≈ 492 µM)	400 (≈ 984 µM)	800 (≈ 1970 µM)	800 (≈ 1970 µM)	800 (≈ 1970 µM)	–	–
Cc1ccc(Nn2c(SCC(=O)c3ccccc3)nc(C)c2C)cc1	–	–	–	–	–	400 (≈ 1140 µM)	400 (≈ 1140 µM)	800 (≈ 2280 µM)	800 (≈ 2280 µM)	800 (≈ 2280 µM)	800 (≈ 2280 µM)	400 (≈ 1140 µM)	800 (≈ 2280 µM)	400 (≈ 1140 µM)	800 (≈ 2280 µM)	200 (≈ 569 µM)	–	–
Cc1ccc(Nn2c(SCC(=O)c3cccc(Cl)c3)nc(C)c2C)cc1	–	–	–	–	–	800 (≈ 2070 µM)	800 (≈ 2070 µM)	800 (≈ 2070 µM)	800 (≈ 2070 µM)	800 (≈ 2070 µM)	800 (≈ 2070 µM)	800 (≈ 2070 µM)	800 (≈ 2070 µM)	800 (≈ 2070 µM)	800 (≈ 2070 µM)	800 (≈ 2070 µM)	–	–
COc1ccc(C(=O)CSc2nc(C)c(C)n2Nc2ccc(Cl)cc2)cc1	–	–	–	–	–	200 (≈ 498 µM)	800 (≈ 1990 µM)	1600 (≈ 3980 µM)	800 (≈ 1990 µM)	400 (≈ 995 µM)	400 (≈ 995 µM)	200 (≈ 498 µM)	800 (≈ 1990 µM)	400 (≈ 995 µM)	800 (≈ 1990 µM)	800 (≈ 1990 µM)	–	–
Cc1nc(SCC(=O)c2cccc(F)c2)n(Nc2ccccc2)c1C	–	–	–	–	–	200 (≈ 563 µM)	400 (≈ 1130 µM)	400 (≈ 1130 µM)	400 (≈ 1130 µM)	400 (≈ 1130 µM)	400 (≈ 1130 µM)	400 (≈ 1130 µM)	400 (≈ 1130 µM)	400 (≈ 1130 µM)	800 (≈ 2250 µM)	400 (≈ 1130 µM)	–	–
COc1ccc(C(=O)CSc2nc(C)c(C)n2Nc2ccc(C)cc2)cc1	153 (≈ 400 µM)	–	–	Toxic	Toxic	25 (≈ 65.5 µM)	100 (≈ 262 µM)	50 (≈ 131 µM)	25 (≈ 65.5 µM)	400 (≈ 1050 µM)	400 (≈ 1050 µM)	25 (≈ 65.5 µM)	400 (≈ 1050 µM)	400 (≈ 1050 µM)	100 (≈ 262 µM)	400 (≈ 1050 µM)	–	Toxic
COc1cccc(C(=O)CSc2nc(C)c(C)n2Nc2ccc(Cl)cc2)c1	–	–	–	–	–	200 (≈ 498 µM)	800 (≈ 1990 µM)	1600 (≈ 3980 µM)	800 (≈ 1990 µM)	800 (≈ 1990 µM)	400 (≈ 995 µM)	200 (≈ 498 µM)	800 (≈ 1990 µM)	400 (≈ 995 µM)	800 (≈ 1990 µM)	800 (≈ 1990 µM)	–	–
Cc1nc(SCC(=O)c2ccc(Cl)c(Cl)c2)n(Nc2ccc(Cl)cc2)c1C	–	–	–	–	–	400 (≈ 907 µM)	400 (≈ 907 µM)	200 (≈ 454 µM)	800 (≈ 1810 µM)	800 (≈ 1810 µM)	800 (≈ 1810 µM)	50 (≈ 113 µM)	400 (≈ 907 µM)	800 (≈ 1810 µM)	800 (≈ 1810 µM)	200 (≈ 454 µM)	–	–

— ChEMBL document CHEMBL3091428, “Synthesis and initial biological evaluation of substituted 1-phenylamino-2-thio-4,5-dimethyl-1H-imidazole derivatives” (Bioorg Med Chem Lett, 2013)
